The text below walks through data of patent US9062061B2, “Compound having PARP inhibitory activity” (SANTEN PHARMACEUTICAL CO., LTD., priority 2011, dated 2015).

A word on the inhibition: it is the change of the read-out against control, counted positive when it falls.

Structures can show the parent of a compound that is named as a salt.

T1 sequence (P09874 whole entry): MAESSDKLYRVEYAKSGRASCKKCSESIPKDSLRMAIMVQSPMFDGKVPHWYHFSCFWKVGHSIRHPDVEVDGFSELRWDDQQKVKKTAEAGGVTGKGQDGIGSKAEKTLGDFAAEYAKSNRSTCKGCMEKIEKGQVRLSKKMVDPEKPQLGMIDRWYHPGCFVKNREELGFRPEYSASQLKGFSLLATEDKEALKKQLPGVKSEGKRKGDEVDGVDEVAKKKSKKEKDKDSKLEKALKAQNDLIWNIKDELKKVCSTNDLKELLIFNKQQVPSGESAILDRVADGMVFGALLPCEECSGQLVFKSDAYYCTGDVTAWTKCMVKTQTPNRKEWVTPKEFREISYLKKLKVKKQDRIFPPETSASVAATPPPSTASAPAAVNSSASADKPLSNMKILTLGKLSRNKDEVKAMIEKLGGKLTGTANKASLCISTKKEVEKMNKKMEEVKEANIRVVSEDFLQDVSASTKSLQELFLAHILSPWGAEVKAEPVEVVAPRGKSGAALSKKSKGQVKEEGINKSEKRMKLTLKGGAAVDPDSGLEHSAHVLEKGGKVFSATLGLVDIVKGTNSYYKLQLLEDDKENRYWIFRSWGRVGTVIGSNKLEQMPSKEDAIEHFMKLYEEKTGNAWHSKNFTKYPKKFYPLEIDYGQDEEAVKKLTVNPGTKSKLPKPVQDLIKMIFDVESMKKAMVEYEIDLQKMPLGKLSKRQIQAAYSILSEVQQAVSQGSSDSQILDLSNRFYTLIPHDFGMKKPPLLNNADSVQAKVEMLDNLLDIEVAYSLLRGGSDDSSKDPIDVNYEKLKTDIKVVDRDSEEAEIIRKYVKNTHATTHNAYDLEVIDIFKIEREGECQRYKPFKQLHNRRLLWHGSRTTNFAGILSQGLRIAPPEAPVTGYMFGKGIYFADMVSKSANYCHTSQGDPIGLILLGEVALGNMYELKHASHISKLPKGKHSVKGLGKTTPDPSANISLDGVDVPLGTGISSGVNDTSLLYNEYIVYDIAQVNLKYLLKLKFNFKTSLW

The assay concerns the target T1, human recombinant PARP1 (Homo sapiens, UniProt P09874).
T1 construct: purchased Trevigen 4677-096-K
Put plainly: PARP inhibitory activity measurement test (Universal Colorimetric PARP Assay kit, Trevigen). The assay is classed as biochemical. To be noted: compound concentration: 10 μM, read-out: PARP1 inhibition rate (%). The method, then:
For evaluating PARP inhibitory activity of the present compound, inhibitory activity of each test compound against human recombinant PARP 1 was measured using Universal Colorimetric PARP Assay kit with Histone-Coated Strip Wells (Cat No.: 4677-096-K) available from Trevigen. The test was conducted according to the procedure in the instruction attached to this kit. The concrete operation will be described below.
After dissolving the test compound in dimethyl sulfoxide, the solution was diluted with a PARP buffer attached to the kit to prepare a 50 μM test compound solution.
In each well of a histone-coated 96-well plate, 10 μL of the test compound solution (50 μM), 15 μL of human recombinant PARP1 (33.3 Unit/mL) and 25 μL of PARP cocktail (containing activated DNA and biotinated NAD) were added, and incubated at room temperature for 1 hour (final reaction amount: 50 μL). Each well was washed twice with 200 μL of 0.1% Triton-X-containing Dulbecco's phosphate buffer, and further washed twice with 200 μL of Dulbecco's phosphate buffer, and then 50 μL of Strep-HRP was added, followed by incubation at room temperature for 1 hour. Each well was washed twice with 200 μL of 0.1% Triton-X-containing Dulbecco's phosphate buffer, and further washed twice with 200 μL of Dulbecco's phosphate buffer, and then 50 μL of TACS-Sapphire coloriometric substrate was added, followed by incubation at room temperature for 15 minutes. After stopping the reaction by adding 50 μL of 0.2 M HCl, absorbance at 450 nm (Abs 450) was measured by a microplate reader. The number of examples in each group was 1 to 2.
Using a well into which dimethyl sulfoxide and a PARP buffer were added in place of the test compound solution and human recombinant PARP1, the above operation was conducted as a negative control.
Using a well into which a PARP buffer containing dimethyl sulfoxide was added in place of the test compound solution, the above operation was conducted as a positive control.
PARP1 inhibition rate (%) was calculated according to the following Formula 1. PARP1 inhibition rate(%)=(AbsB−AbsX)/(AbsB−AbsA)×100 [Formula 1]
AbsA: absorbance of negative control (Abs 450)
AbsB: absorbance of positive control (Abs 450)
AbsX: absorbance of test compound-treated group (Abs 450)
For `O=c1[nH]c2cc(CN3CCN(c4ccc(Br)cc4)CC3)cn2c2ccccc12` [Compound 2-20, 2-[4-(4-Bromophenyl)piperazin-1-ylmethyl]pyrrolo[1,2-a]quinazolin-5(4H)-one], the inhibition at 10 µM came out at 90%.
Under `O=c1[nH]c2cc(CN3CCc4ccccc4C3)cn2c2ccccc12` [Compound 2-21, 2-(1,2,3,4-Tetrahydroisoquinolin-2(1H)-ylmethyl)pyrrolo[1,2-a]quinazolin-5(4H)-one] stands 65%.
`CN(C)C1CCN(Cc2cc3[nH]c(=O)c4ccccc4n3c2)CC1` [Compound 2-22, 2-(4-Dimethylaminopiperidin-1-ylmethyl)pyrrolo[1,2-a]quinazolin-5(4H)-one]: the inhibition at 10 µM was 97%.
Under `O=c1[nH]c2cc(CN3CCN(c4ccncc4)CC3)cn2c2ccccc12` [Compound 2-23, 2-[4-(Pyridin-4-yl)piperazin-1-ylmethyl]pyrrolo[1,2-a]quinazolin-5(4H)-one] stands 100%.
Turning to `CC1CN(c2ccc(F)cc2)CCN1Cc1cc2[nH]c(=O)c3ccccc3n2c1` (stereo not shown) [Compound 2-24, 2-[4-(4-Fluorophenyl)-2-methylpiperazin-1-ylmethyl]pyrrolo[1,2-a]quinazolin-5(4H)-one], the inhibition at 10 µM stood at 99%.
Under `COc1ccccc1N1CCN(Cc2cc3[nH]c(=O)c4ccccc4n3c2)CC1` [Compound 2-25, 2-[4-(2-Methoxyphenyl)piperazin-1-ylmethyl]pyrrolo[1,2-a]quinazolin-5(4H)-one] stands 100%; under `COc1cccc(N2CCN(Cc3cc4[nH]c(=O)c5ccccc5n4c3)CC2)c1` [Compound 2-26, 2-[4-(3-Methoxyphenyl)piperazin-1-ylmethyl]pyrrolo[1,2-a]quinazolin-5(4H)-one], 78%.
Under `O=c1[nH]c2cc(CN3CCN(C4CCCCC4)CC3)cn2c2ccccc12` [Compound 2-27, 2-(4-Cyclohexylpiperazin-1-ylmethyl)pyrrolo[1,2-a]quinazolin-5(4H)-one] stands 99%.
Consider `O=c1[nH]c2cc(CN3CCN(CC4CC4)CC3)cn2c2ccccc12` [Compound 2-28, 2-(4-Cyclopropylmethylpiperazin-1-ylmethyl)pyrrolo[1,2-a]quinazolin-5(4H)-one], for which the inhibition at 10 µM was found to be 99%.
On to `O=c1[nH]c2cc(CN3CCN(c4ccc(C(F)(F)F)cc4)CC3)cn2c2ccccc12` [Compound 2-29, 2-[4-(4-Trifluoromethylphenyl)piperazin-1-ylmethyl]pyrrolo[1,2-a]quinazolin-5(4H)-one], for which the inhibition at 10 µM came out at 40%.
Under `O=c1[nH]c2cc(CN3CCCC(c4ccccc4)C3)cn2c2ccccc12` (stereo not shown) [Compound 2-31, 2-(3-Phenylpiperidin-1-ylmethyl)pyrrolo[1,2-a]quinazolin-5(4H)-one] stands 66%; under `Cc1cccc(N2CCN(Cc3cc4[nH]c(=O)c5ccccc5n4c3)CC2)c1` [Compound 2-32, 2-[4-(3-Methylphenyl)piperazin-1-ylmethyl]pyrrolo[1,2-a]quinazolin-5(4H)-one], 97%; under `O=c1[nH]c2cc(CN3CCC(N4CCCCC4)CC3)cn2c2ccccc12` [Compound 2-33, 2-[4-(Piperidin-1-yl)piperidin-1-ylmethyl]pyrrolo[1,2-a]quinazolin-5(4H)-one], 96%.
In the case of `O=c1[nH]c2cc(CN3CCCC3)cn2c2ccccc12` [Compound 2-34, 2-(Pyrrolidin-1-ylmethyl)pyrrolo[1,2-a]quinazolin-5(4H)-one] it was 96%.
In the case of `O=c1[nH]c2cc(CN3CCN(c4nccc5occc45)CC3)cn2c2ccccc12` [Compound 2-36, 2-[4-(Furo[3,2-c]pyridin-4-yl)piperazin-1-ylmethyl]pyrrolo[1,2-a]quinazolin-5(4H)-one] it was 82%.
As for `CC(C)Oc1ccc(N2CCN(Cc3cc4[nH]c(=O)c5ccccc5n4c3)CC2)cc1` [Compound 2-38, 2-[4-(4-Isopropoxyphenyl)piperazin-1-ylmethyl]pyrrolo[1,2-a]quinazolin-5(4H)-one], the inhibition at 10 µM amounted to 98%.
Under `O=c1[nH]c2cc(CN3CCN(c4ccc(F)cc4)CC3)cn2c2ccsc12` [Compound 2-41, 7-[4-(4-Fluorophenyl)piperazin-1-ylmethyl]pyrrolo[1,2-a]thieno[2,3-e]pyrimidin-4(5H)-one] stands 100%; under `O=c1[nH]c2cc(CN3CCN(c4ccc(Cl)cc4)CC3)cn2c2ccsc12` [Compound 2-42, 7-[4-(4-Chlorophenyl)piperazin-1-ylmethyl]pyrrolo[1,2-a]thieno[2,3-e]pyrimidin-4(5H)-one], 100%.
For the compound `O=c1[nH]c2cc(CN3CCCC3)cn2c2ccsc12` [Compound 2-43, 7-(Pyrrolidin-1-ylmethyl)pyrrolo[1,2-a]thieno[2,3-e]pyrimidin-4(5H)-one], the inhibition at 10 µM turned out to be 91%.
Under `CN(C)CCOc1cc(F)ccc1N1CCN(Cc2cc3[nH]c(=O)c4ccccc4n3c2)CC1` [Compound 2-46, 2-[4-[2-(2-Dimethylaminoethoxy)-4-fluorophenyl]piperazin-1-ylmethyl]pyrrolo[1,2-a]quinazolin-5(4H)-one] stands 85%; under `O=c1[nH]c2cc(CN3CCC(N4CCOCC4)CC3)cn2c2ccccc12` [Compound 2-47, 2-[4-(Morpholin-4-yl)piperidin-1-ylmethyl]pyrrolo[1,2-a]quinazolin-5(4H)-one], 99%; under `O=c1[nH]c2cc(CN3CCN(c4ccc(O)cc4)CC3)cn2c2ccccc12` [Compound 3-1, 2-[4-(4-Hydroxyphenyl)piperazin-1-ylmethyl]pyrrolo[1,2-a]quinazolin-5(4H)-one], 100%.
In the case of `O=C(c1cc2[nH]c(=O)c3ccccc3n2c1)N1CCCNCC1` [Compound 5-1, 2-(Homopiperazine-1-carbonyl)pyrrolo[1,2-a]quinazolin-5(4H)-one hydrochloride] it was 99%.
In the case of `O=C(c1cc2[nH]c(=O)c3ccccc3n2c1)N1CCNCC1` [Compound 5-2, 2-(piperazine-1-carbonyl)pyrrolo[1,2-a]quinazolin-5(4H)-one] it was 85%.
`O=C(c1cc2[nH]c(=O)c3ccccc3n2c1)N1CCCN(C(=O)C2CC2)CC1` [Compound 6-1, 2-[4-Cyclopropylcarbonylhomopiperazine-1-carbonyl]pyrrolo[1,2-a]quinazolin-5(4H)-one]: the inhibition at 10 µM is 90%.
